The target in test [1] is T1, leptin receptor (Ob-Rb) (Rattus norvegicus, UniProt Q62959).
T1 construct: endogenous in cells; host or cells: rat hypothalamus-derived immortalized lines NC-6, NC-12, AMN2-25
T1 sequence (Q62959 22-1162): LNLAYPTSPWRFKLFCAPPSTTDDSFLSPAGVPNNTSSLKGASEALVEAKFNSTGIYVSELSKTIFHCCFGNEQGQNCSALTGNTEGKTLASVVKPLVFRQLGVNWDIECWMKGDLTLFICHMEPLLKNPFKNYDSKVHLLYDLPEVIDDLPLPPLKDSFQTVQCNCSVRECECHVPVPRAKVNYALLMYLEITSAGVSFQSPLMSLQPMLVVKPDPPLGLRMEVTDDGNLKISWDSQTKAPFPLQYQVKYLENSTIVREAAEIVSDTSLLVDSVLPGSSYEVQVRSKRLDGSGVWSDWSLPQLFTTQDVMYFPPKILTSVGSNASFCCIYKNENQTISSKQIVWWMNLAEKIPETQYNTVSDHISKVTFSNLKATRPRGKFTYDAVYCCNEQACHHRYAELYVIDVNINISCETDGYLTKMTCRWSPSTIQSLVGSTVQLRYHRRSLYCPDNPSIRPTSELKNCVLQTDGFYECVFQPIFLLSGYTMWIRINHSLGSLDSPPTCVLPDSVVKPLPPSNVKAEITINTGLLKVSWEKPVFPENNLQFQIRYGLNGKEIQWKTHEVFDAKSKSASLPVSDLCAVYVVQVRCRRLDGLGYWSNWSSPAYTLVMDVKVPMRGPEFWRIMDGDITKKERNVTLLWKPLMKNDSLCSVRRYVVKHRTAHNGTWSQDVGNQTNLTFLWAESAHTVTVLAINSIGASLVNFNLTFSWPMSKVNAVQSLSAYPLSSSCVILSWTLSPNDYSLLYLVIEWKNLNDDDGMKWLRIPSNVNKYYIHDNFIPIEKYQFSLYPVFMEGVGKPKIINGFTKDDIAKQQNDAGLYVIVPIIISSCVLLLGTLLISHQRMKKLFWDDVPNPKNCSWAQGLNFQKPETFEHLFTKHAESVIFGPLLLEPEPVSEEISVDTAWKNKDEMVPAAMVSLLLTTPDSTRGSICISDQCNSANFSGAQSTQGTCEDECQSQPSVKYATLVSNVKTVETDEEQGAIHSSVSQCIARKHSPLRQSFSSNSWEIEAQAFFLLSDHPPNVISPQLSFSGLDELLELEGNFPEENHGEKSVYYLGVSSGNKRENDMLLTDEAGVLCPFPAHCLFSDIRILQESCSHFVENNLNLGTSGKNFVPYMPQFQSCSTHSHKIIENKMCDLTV
Description: Leptin reactivity: immunostaining using an anti-STAT antibody (STAT3 transfer from cytoplasm to nucleus). The class given is cell-based. As to conditions: NC-6, NC-12 and AMN2-25; 100 nmol/L human leptin, 37° C., 15 minutes; without leptin cytoplasm was stained. The protocol: In a cell line where expression of a leptin receptor (Ob-Rb) protein is confirmed by the method mentioned in Example 7, it was analyzed by the following method whether a functional Ob-Rb is expressed. The following method is a method where the fact that a transcription factor STAT3 is phosphorylated upon stimulation by leptin and is transferred from cytoplasm to nucleus is utilized.
NC-6, NC-12 and AMN2-25 expressing leptin receptor (Ob-Rb) protein are cultured according to the method mentioned in Example 1. After the cultivation, about 1×10^3 cells were plated on 8 chambers coated with CELL-TAK and cultured for 3 days where cultivation temperature was shifted from 33° C. to 37° C. […] After the cultivation, exchange to a DMEM/F-12 (-FCS) medium was conducted. After 2 hours from the exchange of the medium, the cells were stimulated with 100 nmol/L of human leptin (manufactured by R&D Systems) at 37° C. for 15 minutes.
After the stimulation, immunostaining was carried out using an anti-STAT antibody (manufactured by NEB) and a cyanine 3-labeled anti-rabbit IgG (secondary antibody) diluted to an extent of 200-fold. The immunostaining was carried out according to the manual of Phospho Plus Stat 3 (Tyr 705) Antibody it (NEB). […] After the staining, drying was conducted, mounting with a discoloration inhibitor solution was done and an observation under a fluorescence microscope was carried out.

The target in test [2] is T1, leptin receptor (Ob-Rb). Description: Leptin reactivity: change in expression of c-fos gene and SOCS-3 gene by PCR. It is filed as cell-based. The following applies: NC-6, NC-12 and AMN2-25; 100 nmol/L human leptin, 0 minute, 30 minutes or 1 hour. On the procedure:
Expression of c-fos gene and SOCS-3 gene, which has been known to be increased in hypothalamic cells by leptin stimulation, was analyzed by the following method utilizing a PCR whereby the leptin reactivity of the cell line, which was confirmed to be expressing a functional OB-Rb in the above (1), was confirmed from another view.
NC-6, NC-12 and AMN2-25 were cultured according to the method mentioned in Example 1. After the cultivation, about 2×10^4 cells were plated on a 35-mm dish coated with poly-lysine and cultured out for 5 days by shifting the cultivation temperature from 33° C. to 37° C. […] After the cultivation, exchange to a DMEM/F-12 (-FCS) medium was done.
After 2 hours from the exchange of the medium, 100 nmol/L of human leptin (manufactured by R&D Systems) was added. After incubating at 37° C. for 0 minute, 30 minutes or 1 hour, total RNA was collected from each cell line using an RNeasy Mini Kit (manufactured by Qiagen). Single-stranded cDNA was synthesized from the total RNA according to the method mentioned in Example 6 and a PCR was carried out using the cDNA as a template. With regard to primers specific to c-fos gene, synthetic DNAs having the nucleotide sequences of SEQ ID NOS: 45 and 46 were used while, with regard to primers specific to SOCS-3 gene, synthetic DNAs having the nucleotide sequences of SEQ ID NOS: 47 and 48 were used. […]

Test [3] relates to CRE reporter in GBCC13. Nature of the test: Constitutive activity of GPCR, Method 2 (GBCC13 host, firefly luciferase). It is filed as cell-based, human. The following applies: activity with 17β-estradiol divided by activity without, control plasmid about 1. The protocol: After the incubation, Steady Glo Luciferase Assay System (manufactured by Promega) was added and firefly luciferase activity was measured. For the measurement of activity, Auto Lumat LB953 (manufactured by Berthold) or Top Count (Packard) was used. […] It is judged that the higher the induction ratio of the cells to which a GPCR expression plasmid was transfected, the stronger the constitutive activity of the GPCR.

Test [4] has as its system CRE reporter in GBC7. Nature of the test: Constitutive activity of GPCR, Method 4 (GBC7 host, firefly luciferase). The class given is cell-based, human. The following applies: activity with 17β-estradiol divided by activity without, control plasmid about 1. On the procedure:
This is a measuring method for constitutive activity of GPCR which is the same as Method 2 except that GBC7 was used as a host and no puromycin was added in the incubation of the transformants.
(§1) In each method, the induction ratio of the cells transfected with the control plasmid was about 1. It is judged that the higher the induction ratio of the cells to which a GPCR expression plasmid was transfected, the stronger the constitutive activity of the GPCR.

In test [5] the test system is sulfonylurea receptor. Nature of the test: Intracellular Ca2+ rise on sulfonylurea in immortalized cell lines derived from hypothalamus (Fura-2AM, CAF-110). The class given is cell-based, rat. As to conditions: 0.5 mmol/L. On the procedure: The immortalized cell lines (a mixture) derived from hypothalamus of female adult rat obtained in Example 3 were cultured by the method mentioned in Example 1. […] The resulting cells were washed with an HBSS buffer (manufactured by Gibco) twice and the cells were floated. Sulfonylurea (Tolbutamide; manufactured by Alexis) was added to about 1×10^6 cell to make its final concentration 0.5 mmol/L and a rise in Ca^2+ concentration in the cells was checked. Measurement of the Ca^2+ concentration in the cells was conducted using a CAF-110 instrument (manufactured by Nippon Bunko).
As same as in the above (1), reactivity of an immortalized cell line (single clone AMN2-25) derived from hypothalamus of male adult rat obtained in Example 3 with sulfonylurea was tested.

Test [6] addresses T2, sulfonylurea receptor (Rattus norvegicus, UniProt Q09429).
T2 construct: endogenous in cells; host or cells: rat islet-derived clones M-6, M-9, M-15, M-19, M-20, M-33, M-43, F-1, F-9
Description: Intracellular Ca2+ rise on sulfonylurea in single clones derived from Langerhans islets (Fura-2AM). The class given is cell-based. As to conditions: single clones M-6, M-9, M-15, M-19, M-20, M-33, M-43, F-1 and F-9; 0.5 mmol/L. On the procedure: About 5×10^6 cells of single clones (M-6, M-9, M-15, M-19, M-20, M-33, M-43, F-1 and F-9) of immortalized cell lines mentioned in Example 11 obtained using an RPMI 1640 (05918) medium were plated on a 60-mm dish and cultured at 33° C. for 2 days using an RPMI 1640 (05918) medium.
After the cultivation, it was washed with an HBSS buffer (manufactured by Gibco) for two times and the cells were floated. Sulfonylurea (Tolbutamide, manufactured by Alexis) was added to about 1×10^6 of the cells so as to make the final concentration 0.5 mmol/L whereupon an increase in Ca^2+ concentration in the cells was checked. Measurement of the Ca^2+ concentration in the cells was carried out using a CAF-100 instrument (manufactured by Nippon Bunko).

Test [7] has as its system CRE reporter in GBCR2. Description: Constitutive activity of GPCR, Method 3 (GBCR2 host, Renilla reniformis luciferase). The class given is cell-based, human. The following applies: activity with 17β-estradiol divided by activity without, control plasmid about 1. The protocol: This is a measuring method for constitutive activity of GPCR which is the same as Method 1 except that GBCR2 was used as a host and no puromycin was added in the incubation of the transformants.
as §1

T2 sequence (Q09429 whole entry): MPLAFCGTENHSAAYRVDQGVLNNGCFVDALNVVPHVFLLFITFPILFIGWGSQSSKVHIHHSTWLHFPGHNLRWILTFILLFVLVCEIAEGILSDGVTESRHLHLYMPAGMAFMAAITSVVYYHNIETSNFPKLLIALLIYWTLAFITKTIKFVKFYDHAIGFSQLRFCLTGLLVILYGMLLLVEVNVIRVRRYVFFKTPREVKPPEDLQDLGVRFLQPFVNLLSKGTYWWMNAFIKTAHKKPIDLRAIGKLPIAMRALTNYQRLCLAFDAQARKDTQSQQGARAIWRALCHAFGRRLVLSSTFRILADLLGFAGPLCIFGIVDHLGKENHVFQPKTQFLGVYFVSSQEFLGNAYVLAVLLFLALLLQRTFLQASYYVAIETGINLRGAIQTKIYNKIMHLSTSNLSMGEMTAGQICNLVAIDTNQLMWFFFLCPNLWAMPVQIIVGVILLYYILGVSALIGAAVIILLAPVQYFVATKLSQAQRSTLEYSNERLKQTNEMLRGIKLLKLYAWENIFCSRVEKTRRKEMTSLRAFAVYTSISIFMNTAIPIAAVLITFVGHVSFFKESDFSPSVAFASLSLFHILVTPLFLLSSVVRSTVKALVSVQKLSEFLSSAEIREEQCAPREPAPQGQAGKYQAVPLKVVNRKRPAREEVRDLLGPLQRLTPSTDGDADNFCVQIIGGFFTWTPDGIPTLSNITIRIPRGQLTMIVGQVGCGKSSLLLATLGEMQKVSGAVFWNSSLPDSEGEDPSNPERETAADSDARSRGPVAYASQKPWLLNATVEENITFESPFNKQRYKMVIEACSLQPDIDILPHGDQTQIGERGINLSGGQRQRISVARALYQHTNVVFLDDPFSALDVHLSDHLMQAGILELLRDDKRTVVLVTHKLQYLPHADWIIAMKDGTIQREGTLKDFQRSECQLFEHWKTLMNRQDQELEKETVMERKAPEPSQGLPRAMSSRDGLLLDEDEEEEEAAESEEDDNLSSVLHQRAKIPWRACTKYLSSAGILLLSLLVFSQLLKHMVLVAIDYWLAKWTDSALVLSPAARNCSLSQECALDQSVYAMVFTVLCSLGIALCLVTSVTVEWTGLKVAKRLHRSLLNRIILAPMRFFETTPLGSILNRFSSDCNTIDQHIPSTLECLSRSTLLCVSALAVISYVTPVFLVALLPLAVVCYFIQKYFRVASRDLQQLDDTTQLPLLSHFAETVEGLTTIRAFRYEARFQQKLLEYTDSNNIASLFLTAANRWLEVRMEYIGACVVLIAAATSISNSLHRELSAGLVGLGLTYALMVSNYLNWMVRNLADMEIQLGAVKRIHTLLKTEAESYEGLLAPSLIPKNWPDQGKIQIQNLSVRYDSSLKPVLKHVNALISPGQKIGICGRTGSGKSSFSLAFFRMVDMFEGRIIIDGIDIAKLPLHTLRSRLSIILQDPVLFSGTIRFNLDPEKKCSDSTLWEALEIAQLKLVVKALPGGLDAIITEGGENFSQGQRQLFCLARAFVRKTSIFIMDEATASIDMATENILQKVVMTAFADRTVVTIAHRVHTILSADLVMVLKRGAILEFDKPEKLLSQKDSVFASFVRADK
T2 sequence (P70673 whole entry partner): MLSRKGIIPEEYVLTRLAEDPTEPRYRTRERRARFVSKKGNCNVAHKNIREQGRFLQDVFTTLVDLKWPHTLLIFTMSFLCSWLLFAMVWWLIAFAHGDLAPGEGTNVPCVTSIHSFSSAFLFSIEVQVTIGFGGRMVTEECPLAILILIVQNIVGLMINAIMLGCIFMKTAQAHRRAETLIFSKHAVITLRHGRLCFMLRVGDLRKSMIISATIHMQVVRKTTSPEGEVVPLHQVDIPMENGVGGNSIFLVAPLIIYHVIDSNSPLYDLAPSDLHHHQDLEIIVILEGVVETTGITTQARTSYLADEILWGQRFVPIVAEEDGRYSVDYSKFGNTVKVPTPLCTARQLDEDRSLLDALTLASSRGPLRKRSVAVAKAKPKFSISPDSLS

On to “leptin: human leptin (manufactured by R&D Systems)”, for which the “STAT3 immunostaining upon stimulation with leptin” value in test [1] was “the area inside the nucleus was stained”. In addition, in test [2], the “expression of SOCS-3 gene by stimulation with leptin” value is recorded as “increased” and the “expression of c-fos gene by stimulation with leptin” value is given as “increased”.
As to GPR 25, the “Constitutive Activity (induction ratio)” value in test [3] is reported as 4.8-fold.
As to GPR 52, the “Constitutive Activity (induction ratio)” value in test [4] is 40-fold.
For `CCCCNC(=O)NS(=O)(=O)c1ccc(C)cc1` [sulfonylurea, Tolbutamide], the “rise in Ca2+ concentration in the cells” value in test [5] (immortalized cell lines (a mixture) from hypothalamus of female adult rat) is given as “cell lines which reacted with sulfonylurea were present”. For the same molecule, in test [5] (single clone AMN2-25), the “Ca2+ concentration in the cell” value is “increased”. Besides, the “Ca2+ concentration in the cells” value in test [6] was “increased”.

B1: GPR 12 (protein, UniProt P47775 1-334, looked up)
G-protein coupled receptor 12: MNEDLKVNLSGLPRDYLDAAAAENISAAVSSRVPAVEPEPELVVNPWDIVLCTSGTLISCENAIVVLIIFHNPSLRAPMFLLIGSLALADLLAGIGLITNFVFAYLLQSEATKLVTIGLIVASFSASVCSLLAITVDRYLSLYYALTYHSERTVTFTYVMLVMLWGTSICLGLLPVMGWNCLRDESTCSVVRPLTKNNAAILSVSFLFMFALMLQLYIQICKIVMRHAHQIALQHHFLATSHYVTTRKGVSTLAIILGTFAACWMPFTLYSLIADYTYPSIYTYATLLPATYNSIINPVIYAFRNQEIQKALCLICCGCIPSSLAQRARSPSDV
Take B1: in test [7], the “Constitutive Activity (induction ratio)” value is given as 188-fold.

Source of the values: patent publication US20100167397A1, “ENDOCRINE CELL LINES AND METHOD OF USING THE SAME” (KYOWA HAKKO KOGYO CO., LTD., priority 2002, published 2010).
